Reference: PubChem BioAssay AID504341 (Southern Research Specialized Biocontainment Screening …, 2011)
Active and inactive are the calls of the source.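 Rule for the calls: active = compounds blocking at least half of HIV-1 envelope-driven cell fusion at some tested dose; inactive = the rest.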

System: MAGI-CCR5/HeLa-R5-16 cell fusion, beta-gal luminescence
Assay: inhibitors of R5 HIV-1 Env-mediated cell fusion, dose response, MAGI-CCR5/HeLa-R5-16 cells, beta-gal luminescence, 2% serum (AID 504341)

Row | Compound | IC50
1 | CS(=O)(=O)C1=NSC2=NC(=O)/C(=C\c3cccn3-c3cccc(C(F)(F)F)c3)C(=N)N21 | 46.6 µM
2 | COc1ccc(-n2cccc2/C=C2/C(=N)N3C(=NC2=O)SN=C3S(C)(=O)=O)cc1Cl | 46.4 µM
3 | O=C(O)CCCN1C(=O)/C(=C/c2ccc(-c3cccc(C(F)(F)F)c3)o2)SC1=S | 24.5 µM
4 | O=C(O)CCC(C(=O)O)N1C(=O)/C(=C\c2ccco2)SC1=S (stereo not drawn) | > 100 µM (inactive)
5 | COc1ccccc1NS(=O)(=O)c1ccc2c(c1)C1C=CCC1C(c1ccc(C(=O)O)cc1)N2 (stereo not drawn) | 38.7 µM
6 | O=C(O)CCCN1C(=O)/C(=C\c2ccc(-c3cccc(Cl)c3)o2)SC1=S | 28.5 µM
7 | O=C(O)CCCN1C(=O)/C(=C\c2ccc(-c3ccc(Cl)cc3)o2)SC1=S | 8.29 µM
8 | O=C(O)CCCN1C(=O)/C(=C/c2ccc(-c3ccc(Cl)c(Cl)c3)o2)SC1=S | 8.68 µM
9 | O=C(O)c1ccc(C2Nc3ccc(S(=O)(=O)Nc4cc(Cl)ccc4Cl)cc3C3C=CCC32)cc1 (stereo not drawn) | 28.4 µM
10 | O=C(O)CCCN1C(=O)/C(=C/c2cc3ccccc3o2)SC1=S | > 100 µM (inactive)
11 | CCc1ccc(-c2ccc(/C=C3\SC(=S)N(CCCC(=O)O)C3=O)o2)cc1 | 62.4 µM
12 | CS(=O)(=O)C1=NSC2=NC(=O)/C(=C\c3cccn3-c3cc(Cl)cc(Cl)c3)C(=N)N21 | 32.3 µM
13 | O=C(O)CCCN1C(=O)/C(=C\c2ccc(-c3ccc(F)cc3)o2)SC1=S | > 100 µM (inactive)
14 | O=C(O)c1ccc([C@@H]2Nc3ccc(S(=O)(=O)Nc4cccc5ccccc45)cc3[C@@H]3C=CC[C@@H]32)cc1 | 23.5 µM
15 | O=C(O)c1ccc(C[n+]2c(-c3ccc([N+](=O)[O-])cc3)csc2Nc2ccccc2)cc1 | > 100 µM (inactive)
16 | CS(=O)(=O)C1=NSC2=NC(=O)/C(=C\c3cccn3-c3ccc(Cl)cc3)C(=N)N21 | 34.8 µM
17 | COc1ccc(-c2ccc(/C=C3\SC(=S)N(CCCC(=O)O)C3=O)o2)cc1 | 36.6 µM
18 | O=C(O)CCCN1C(=O)/C(=C\c2ccc(-c3ccc(Br)cc3)o2)SC1=S | 3.49 µM
19 | CCOC(=O)C1=C(C)N=c2sc(=Cc3ccc(OCC(=O)O)cc3)c(=O)n2C1c1cc(OC)c(OC)c(OC)c1 (stereo not drawn) | 75.5 µM
20 | CCOc1ccc(-n2cccc2/C=C2/C(=N)N3C(=NC2=O)SN=C3S(C)(=O)=O)cc1 | 39.5 µM
21 | Cc1ccc(-c2ccc(/C=C3\SC(=S)N(CCCC(=O)O)C3=O)o2)cc1 | 29.1 µM
22 | CS(=O)(=O)C1=NSC2=NC(=O)/C(=C\c3cccn3-c3ccc(Br)cc3)C(=N)N21 | 28.5 µM
23 | CCOC(=O)C1=C(C)N=c2sc(=Cc3ccc(OCC(=O)O)cc3)c(=O)n2C1c1ccc(OC)cc1OC (stereo not drawn) | 29 µM
24 | Cc1ccc(-n2cccc2/C=C2/C(=N)N3C(=NC2=O)SN=C3S(C)(=O)=O)cc1 | 38 µM
25 | CC1=C(C(=O)OC(C)C)C(c2ccc(Cl)cc2)n2c(s/c(=C\c3ccc(OCC(=O)O)cc3)c2=O)=N1 (stereo not drawn) | 56.8 µM
26 | CS(=O)(=O)C1=NSC2=NC(=O)/C(=C\c3cccn3-c3ccc(F)cc3)C(=N)N21 | 27.9 µM
27 | O=C(O)c1ccc(C[n+]2c(-c3ccccc3)csc2Nc2ccccc2)cc1 | > 100 µM (inactive)
28 | CCOC(=O)C1=C(C)N=c2s/c(=C\c3ccc(OCC(=O)O)cc3)c(=O)n2C1c1ccc(OC)c(OCC)c1 (stereo not drawn) | 31.3 µM

Next, values leading:

Row | IC50 | Compound
29 | 17 µM | COc1ccccc1Cn1c(O)cc2nn(-c3nc4ccccc4s3)c(=O)c-2c1C
30 | 5.19 µM | Cc1c2c(=O)n(-c3nc4ccccc4s3)nc-2cc(O)n1CCc1ccc(O)cc1
31 | > 100 µM (inactive) | Cc1c2c(=O)n(-c3nc4ccccc4s3)nc-2cc(O)n1CCc1cccs1
32 | 33.3 µM | CCc1ccc(-n2cccc2/C=C2/C(=N)N3C(=NC2=O)SN=C3S(C)(=O)=O)cc1
33 | 36.4 µM | CS(=O)(=O)C1=NSC2=NC(=O)/C(=C\c3cccn3-c3cccc(Cl)c3)C(=N)N21
34 | > 100 µM (inactive) | COc1cccc(-n2cccc2/C=C2/C(=N)N3C(=NC2=O)SN=C3S(C)(=O)=O)c1
35 | 2.96 µM | Cc1c2c(=O)n(-c3nc4ccccc4s3)nc-2cc(O)n1Cc1ccncc1
36 | 33.1 µM | Cc1ccc(-n2cccc2/C=C2/C(=N)N3C(=NC2=O)SN=C3S(C)(=O)=O)cc1C
37 | 39.2 µM | CCOC(=O)C1=C(C)N=c2sc(=Cc3ccc(OCC(=O)O)cc3)c(=O)n2C1c1ccc(F)cc1 (stereo not drawn)
38 | 45.6 µM | Cc1c2c(=O)n(-c3nc4ccccc4s3)nc-2cc(O)n1Cc1ccccc1Cl
39 | 15.5 µM | Cc1c2c(=O)n(-c3nc4ccccc4s3)nc-2cc(O)n1C1CC1
40 | > 100 µM (inactive) | COc1cccc(C2C(C(=O)Nc3ccccc3)=C(C)N=c3sc(=Cc4ccc(OCC(=O)O)cc4)c(=O)n32)c1 (stereo not drawn)
41 | 49.9 µM | CS(=O)(=O)C1=NSC2=NC(=O)/C(=C\c3cccn3-c3cccc(F)c3)C(=N)N21
42 | 34.5 µM | Cc1c2c(=O)n(-c3nc4ccccc4s3)nc-2cc(O)n1Cc1cccs1
43 | 39 µM | Cc1c2c(=O)n(-c3nc4ccccc4s3)nc-2cc(O)n1CCC(C)C
44 | 25.8 µM | CCOC(=O)C1=C(c2ccccc2)N=c2s/c(=C\c3ccc(OCC(=O)O)cc3)c(=O)n2C1c1cccc(OC)c1 (stereo not drawn)
45 | 48.8 µM | CCOC(=O)C1=C(C)N=c2sc(=Cc3ccc(OCC(=O)O)cc3)c(=O)n2C1c1ccccc1OC (stereo not drawn)
46 | 15.3 µM | COc1ccc(Cn2c(O)cc3nn(-c4nc5ccccc5s4)c(=O)c-3c2C)cc1
47 | 3.54 µM | Cc1c2c(=O)n(-c3nc4ccccc4s3)nc-2cc(O)n1Cc1cccnc1
48 | 34.9 µM | CCOC(=O)C1=C(C)N=c2s/c(=C\c3ccc(OCC(=O)O)cc3)c(=O)n2C1c1ccc(Cl)cc1 (stereo not drawn)
49 | > 100 µM (inactive) | Nc1sc2ccccc2[n+]1Cc1ccc(C(=O)O)cc1
50 | 20 µM | Cc1c2c(=O)n(-c3nc4ccccc4s3)nc-2cc(O)n1Cc1ccc(F)cc1
51 | 63.1 µM | CCOC(=O)C1=C(C)N=c2sc(=Cc3ccc(OCC(=O)O)cc3)c(=O)n2C1c1ccccc1 (stereo not drawn)
52 | > 100 µM (inactive) | COc1ccc(CCn2c(O)cc3nn(-c4nc5ccccc5s4)c(=O)c-3c2C)cc1
53 | 35.2 µM | CS(=O)(=O)C1=NSC2=NC(=O)/C(=C\c3cccn3-c3ccc(Cl)c(Cl)c3)C(=N)N21
